According to ChEMBL document CHEMBL5113479, “Pyrido[2,3-d]pyrimidine-2,4(1H,3H)-dione derivatives as RAF-MEK-ERK pathway signaling pathway blockers: Synthesis, cytotoxic activity, mechanistic investigation and structure-activity relationships” (Eur J Med Chem, 2022):

Assays:
[1] = Cytotoxicity against human C-28/I2 cells measured after 72 hrs by CCK8 assay; format: toxicity, cell-based
SK-MEL-2 = assay: Antiproliferative activity against human SK-MEL-2 cells assessed as inhibition of cell growth measured after 72 hrs by CCK8 assay; format: functional, cell-based; conditions: SK-MEL-2, 72 h
A-375 = assay: Antiproliferative activity against human A-375 cells assessed as inhibition of cell growth measured after 72 hrs by CCK8 assay; format: functional, cell-based; conditions: A-375, 72 h
MCF7 = assay: Antiproliferative activity against human MCF7 cells assessed as inhibition of cell growth measured after 72 hrs by CCK8 assay; format: functional, cell-based; conditions: MCF7, 72 h
SK-HEP1 = assay: Antiproliferative activity against human SK-HEP1 cells assessed as inhibition of cell growth measured after 72 hrs by CCK8 assay; format: functional, cell-based; conditions: SK-HEP1, 72 h

| Structure (SMILES) | CC50 at 72 h [1] | IC50 (SK-MEL-2) | IC50 (A-375) | IC50 (MCF7) | IC50 (SK-HEP1) |
| --- | --- | --- | --- | --- | --- |
| CN(C)c1cc(NCC(=O)Nc2cccc(Cl)c2)c2c(=O)n(C)c(=O)n(C)c2n1 | > 100 µM | 41.2 µM | > 50 µM |  |  |
| CN(C)c1cc(NCC(=O)Nc2ccc(C(F)(F)F)cc2)c2c(=O)n(C)c(=O)n(C)c2n1 | > 50 µM | > 50 µM | 43.2 µM |  |  |
| Cn1c(=O)c2c(Nc3ccc(F)c(Cl)c3)cc(=O)n(C)c2n(C)c1=O | > 100 µM |  | 49.6 µM | > 50 µM |  |
| CCn1c(=O)n(C)c(=O)c2c(Nc3ccc(F)c(Cl)c3)cc(=O)n(C)c21 | > 100 µM |  | > 50 µM | > 50 µM |  |
| Cn1c(=O)c2c(NCC(=O)Nc3ccccc3)cc(N3CCCC3)nc2n(C)c1=O | > 100 µM |  | > 50 µM | 42.3 µM |  |
| Cn1c(=O)c2c(NCCCN3CCOCC3)c(Cc3ccccc3)c(=O)n(C)c2n(C)c1=O | > 100 µM |  | > 50 µM | > 50 µM |  |
| COC(=O)c1ccccc1Nc1cc(=O)n(C)c2c1c(=O)n(C)c(=O)n2C | > 100 µM |  | > 50 µM | 33.4 µM |  |
| Cc1ccccc1NC(=O)CNc1cc(N2CCCC2)nc2c1c(=O)n(C)c(=O)n2C | > 100 µM | 6.59 µM | 7.6 µM | 15.8 µM | 10.7 µM |
| Cn1c(=O)c2c(NCC(=O)Nc3ccc(Cl)cc3)cc(N3CCOCC3)nc2n(C)c1=O | > 100 µM | 46.5 µM | 43.2 µM |  |  |
| Cn1c(=O)c2c(NCC(=O)Nc3cccc(Cl)c3)cc(N3CCCC3)nc2n(C)c1=O | > 100 µM | > 50 µM | 48.6 µM |  |  |
| Cc1cccc(NC(=O)CNc2cc(N3CCN(C)CC3)nc3c2c(=O)n(C)c(=O)n3C)c1 | > 25 µM | 42.3 µM | 40 µM |  | 17.3 µM |
| Cn1c(=O)c2c(NCC(=O)Nc3ccc(F)cc3)cc(N3CCCC3)nc2n(C)c1=O | > 100 µM |  | > 50 µM | 39.6 µM |  |
| Cc1ccccc1NC(=O)CNc1cc(N(C)C)nc2c1c(=O)n(C)c(=O)n2C | > 100 µM |  | > 50 µM | 49.9 µM |  |
| CN1CCN(c2cc(NCC(=O)Nc3ccc(Cl)cc3)c3c(=O)n(C)c(=O)n(C)c3n2)CC1 | > 25 µM | 22.4 µM | > 50 µM | > 50 µM | > 50 µM |
| CN(C)c1cc(NCC(=O)Nc2ccc(F)cc2)c2c(=O)n(C)c(=O)n(C)c2n1 | > 100 µM |  | 45.7 µM | 47.5 µM |  |
| CN1CCN(c2cc(NCC(=O)Nc3ccc(OC(F)(F)F)cc3)c3c(=O)n(C)c(=O)n(C)c3n2)CC1 | > 100 µM | 36.6 µM | 30.5 µM | 39.3 µM | 34 µM |
| Cn1c(=O)c2c(Nc3ccc(OC(F)(F)F)cc3)cc(=O)n(C)c2n(C)c1=O | > 100 µM |  | 40.7 µM | 49.8 µM |  |
| O=c1[nH]cc(F)c(=O)[nH]1 [FLUOROURACIL] |  | 6.52 µM | 5.98 µM | 7.42 µM | 4.95 µM |

| Structure (SMILES) | CC50 at 72 h [1] | IC50 (SK-MEL-2) | IC50 (A-375) | IC50 (MCF7) | IC50 (SK-HEP1) |
| --- | --- | --- | --- | --- | --- |
| CN1CCN(c2cc(NCC(=O)Nc3cccc(C(F)(F)F)c3)c3c(=O)n(C)c(=O)n(C)c3n2)CC1 | > 100 µM | > 50 µM | 45 µM |  |  |
| CN(C)c1cc(NCC(=O)Nc2ccc(OC(F)(F)F)cc2)c2c(=O)n(C)c(=O)n(C)c2n1 | > 25 µM | > 50 µM | 39.2 µM |  |  |
| Cn1c(=O)c2c(NCC(=O)Nc3ccc(C(F)(F)F)cc3)cc(N3CCOCC3)nc2n(C)c1=O | > 100 µM |  | > 50 µM | 46.6 µM |  |
| Cn1c(=O)c2c(NCC(=O)Nc3ccc(F)cc3)cc(N3CCOCC3)nc2n(C)c1=O | > 100 µM |  | > 50 µM | 45.4 µM |  |
| Cn1c(=O)c2c(NCC(=O)Nc3ccc(OC(F)(F)F)cc3)cc(N3CCCC3)nc2n(C)c1=O | > 100 µM |  | > 50 µM | 36.2 µM |  |
| CN1CCN(c2cc(NCC(=O)Nc3ccc(F)cc3)c3c(=O)n(C)c(=O)n(C)c3n2)CC1 | > 50 µM | 19.9 µM | 44.7 µM | 32.9 µM | 34.2 µM |
| CN(C)CCNc1c(Cc2ccccc2)c(=O)n(C)c2c1c(=O)n(C)c(=O)n2C | > 100 µM |  | > 50 µM | > 50 µM |  |
| CN(C)c1cc(NCC(=O)Nc2ccc(Cl)cc2)c2c(=O)n(C)c(=O)n(C)c2n1 | > 100 µM |  | > 50 µM | 49.2 µM |  |
| CC(C)Nc1c(Cc2ccccc2)c(=O)n(C)c2c1c(=O)n(C)c(=O)n2C | > 100 µM |  | 24.5 µM | 9.98 µM |  |
| Cc1ccccc1NC(=O)CNc1cc(=O)n(C)c2c1c(=O)n(C)c(=O)n2C | > 100 µM |  | 13 µM | 17.2 µM |  |
| Cn1c(=O)c2c(NC3CC3)c(Cc3ccccc3)c(=O)n(C)c2n(C)c1=O | > 100 µM |  | 45.9 µM | 35.9 µM |  |
| CN1CCN(c2cc(NCC(=O)Nc3ccc(C(F)(F)F)cc3)c3c(=O)n(C)c(=O)n(C)c3n2)CC1 | > 50 µM | 46.4 µM | > 50 µM | > 50 µM |  |
| Cn1c(=O)c2c(NCC(=O)Nc3ccc(Cl)cc3)cc(N3CCCC3)nc2n(C)c1=O | > 100 µM |  | 48.2 µM | 41.2 µM |  |
| Cn1c(=O)c2c(NCC(=O)Nc3cccc(C(F)(F)F)c3)cc(N3CCOCC3)nc2n(C)c1=O | > 100 µM | 4.03 µM | 7.36 µM | 12 µM | 11 µM |
| CCn1c(=O)n(C)c(=O)c2c(Nc3ccccc3C(=O)OC)cc(=O)n(C)c21 | > 100 µM |  | > 50 µM | > 50 µM |  |
| Cn1c(=O)c2c(Nc3ccccn3)cc(=O)n(C)c2n(C)c1=O | > 100 µM |  | 25 µM | 10.2 µM |  |
| CCn1c(=O)n(C)c(=O)c2c(Nc3ccccn3)cc(=O)n(C)c21 | > 100 µM |  | 39.5 µM | 35 µM |  |
| CN(C)c1cc(NCC(=O)Nc2cccc(C(F)(F)F)c2)c2c(=O)n(C)c(=O)n(C)c2n1 | > 100 µM | > 50 µM | 31.9 µM |  |  |
